Experimental data as given in US11013235B2 (priority 2015, dated 2021).
Where two headings read alike, the source gives them in different places.

Legend:
Format in all cases: in vivo
[1] = test system: Phytophthora parasitica; test: Control of Phytophthora parasitica disease in tobacco (Pp-Nt); details: 1 μM spraying every 24 hours for one week, water control 91
Experimental: (§1) In order to compare the effect of the compounds of formula I to V on the control of diseases in different plants, experiments were conducted in tobacco, tomato and Arabidopsis thaliana plants inoculated with Phytophthora parasitica, Rhizoctonia solani, Alternaria solani, Nocardia sp and Botrytis cinerea, respectively. The compounds were applied by spraying, at a concentration of 1 μM, every 24 hours for one week. The plant mortality rate was determined for the disease produced by Phytophthora parasitica, Rhizoctonia solani and Nocardia sp, while the percentage of leaves with symptoms was determined for the infection by Alternaria solani. In the case of plants affected by Botrytis cinerea, the lesion diameter was measured. […] Each treatment included fifty plants. As control, plants treated with water were studied. The plants of each treatment were previously inoculated with the indicated pathogens, according to different inoculation protocols (Frontiers in Plant Science 3: 268, 1-6, 2012), and later they were treated with the compounds.

[2] = test system: Nocardia sp; test: Control of Nocardia sp disease in tobacco (N-Nt); details: 1 μM spraying every 24 hours for one week, water control 58
Experimental: as §1

[3] = test system: Pratylenchus coffeae; test: Nematode control, nodules per plant: Pratylenchus coffeae; details: 1 μM foliar application every 5 days, evaluation 35 days after, control 42
Experimental: (§2) The solutions of the compounds were prepared in ethanol and diluted in water, up to a concentration of 1 μM for a foliar application. Applications were conducted every 5 days, spraying only the leafs with each compound. Ten plants were used for each treatment and the final evaluation was performed 35 days after, by quantifying the number of nodules per plant.

[4] = test system: Candidatus 'Liberibacter asiaticus'; details: spraying every 15 days, 12 months after treatment, Citrus sinensis with HLB
[5] = test system: Radopholus similis; test: Nematode control, nodules per plant: Radopholus similis; details: 1 μM foliar application every 5 days, evaluation 35 days after, control 45
Experimental: as §2

[6] = test system: Botrytis cinerea; test: Control of Botrytis cinerea disease in Arabidopsis (Bc-At); details: 1 μM spraying every 24 hours for one week, water control 8.7
Experimental: as §1

[7] = test system: Botrytis cinerea; test: Control of Botrytis cinerea disease in tomato (Bc-SI); details: 1 μM spraying every 24 hours for one week, water control 7.4
Experimental: as §1

[8] = test system: Alternaria solani; test: Control of Alternaria solani disease in tomato (As-SI); details: 1 μM spraying every 24 hours for one week, water control 68
Experimental: as §1

[9] = test system: Botrytis cinerea; test: Control of Botrytis cinerea disease in tobacco (Bc-Nt); details: 1 μM spraying every 24 hours for one week, water control 6.7
Experimental: as §1

[10] = test system: Rhizoctonia solani; test: Control of Rhizoctonia solani disease in tobacco (Rs-Nt); details: 1 μM spraying every 24 hours for one week, water control 87
Experimental: as §1

[11] = test system: Meloidogyne incognita; test: Nematode control, nodules per plant: Meloidogyne incognita; details: 1 μM foliar application every 5 days, evaluation 35 days after, control 34
Experimental: as §2

[12] = test system: Rhizoctonia solani; test: Control of Rhizoctonia solani disease in tomato (Rs-SI); details: 1 μM spraying every 24 hours for one week, water control 96
Experimental: as §1

| Structure (SMILES) | Pp-Nt: percentage of mortality [1] [%] | N-Nt: percentage of mortality [2] [%] | Pc: number of nodules per plant [3] | Titers of the bacterium ([4]; 0.001 μM) [copies per reaction] | Titers of the bacterium ([4]; 0.01 μM) [copies per reaction] | Titers of the bacterium ([4]; 1 μM) [copies per reaction] | Titers of the bacterium ([4]; 5 μM) [copies per reaction] | Titers of the bacterium ([4]; 10 μM) [copies per reaction] | Rs: number of nodules per plant [5] | Bc-At: mean of the diameter of the lesion [6] [mm] | Bc-SI: mean of the diameter of the lesion [7] [mm] | As-SI: percentage of leaves with the disease symptoms [8] [%] | Bc-Nt: mean of the diameter of the lesion [9] [mm] | Rs-Nt: percentage of mortality [10] [%] | Mi: number of nodules per plant [11] | Rs-SI: percentage of mortality [12] [%] |
| --- | --- | --- | --- | --- | --- | --- | --- | --- | --- | --- | --- | --- | --- | --- | --- | --- |
| Cc1c(CCC(=O)NCC(O)CO)c(=O)oc2cc3occ(-c4ccccc4)c3cc12 (stereo not shown) [II, N-(2,3-dihydroxypropyl)-3-{4-methyl-2-oxo-6-phenyl-2H-furo[3,2-g]chromen-3-yl}propanamide] | 2 | 1 | 13 | 756 | 14 | 14 | 76 | 8420 | 2 | 0.5 | 0.8 | 2 | 0.9 | 3 | 3 | 2 |
| CC1=COC2c3cc(CC(=O)NCC(O)CO)c(=O)oc3C=CC12 (stereo not shown) [IIA, N-(2,3-dihydroxypropyl)-2-{5-methyl-11-oxo-3,10-dioxatricyclo[7.4.0.0^{2,6}]trideca-1(9),4,7,12-tetraen-12-yl}acetamide] | 1 | 1 | 14 | 598 | 14 | 0 | 98 | 9845 | 17 | 0.5 | 0.8 | 1 | 0.9 | 2 | 2 | 3 |
| O=C(Cc1cc2c(oc1=O)C=CC1C(c3ccccc3)=COC21)NCC(O)CO (stereo not shown) [IIB, N-(2,3-dihydroxypropyl)-2-{11-oxo-5-phenyl-3,10-dioxatricyclo[7.4.0.0^{2,6}]trideca-1(9),4,7,12-tetraen-12-yl}acetamide] | 2 | 1 | 14 | 432 | 17 | 2 | 43 | 8654 | 2 | 1.5 | 2.5 | 2 | 1.5 | 3 | 3 | 2 |
| O=C(Cc1cc2c(oc1=O)C=CC1C(C3CCCCC3)=COC21)NCC(O)CO (stereo not shown) [IIC, 2-{5-cyclohexyl-11-oxo-3,10-dioxatricyclo[7.4.0.0^{2,6}]trideca-1(9),4,7,12-tetraen-12-yl}-N-(2,3-dihydroxypropyl)acetamide] | 1 | 2 | 2 | 123 | 25 | 2 | 23 | 4562 | 18 | 2.4 | 0.8 | 3 | 1.5 | 4 | 4 | 2 |
| O=C(Cc1cc2c(oc1=O)C=CC1C(C3CCCC3)=COC21)NCC(O)CO (stereo not shown) [IID, 2-{5-cyclopentyl-11-oxo-3,10-dioxatricyclo[7.4.0.0^{2,6}]trideca-1(9),4,7,12-tetraen-12-yl}-N-(2,3-dihydroxypropyl)acetamide] | 0 | 1 | 17 | 587 | 12 | 2 | 87 | 1351 | 0 | 0.7 | 1.2 | 8 | 0.9 | 0 | 0 | 2 |
| O=C(Cc1cc2c(oc1=O)C=CC1C(c3ccc4ccccc4c3)=COC21)NCC(O)CO (stereo not shown) [IIE, N-(2,3-dihydroxypropyl)-2-[5-(naphthalen-2-yl)-11-oxo-3,10-dioxatricyclo[7.4.0.0^{2,6}]trideca-1(9),4,7,12-tetraen-12-yl]acetamide] | 0 | 0 | 0 | 985 | 1 | 5 | 98 | 2547 | 0 | 1.2 | 0.8 | 7 | 0.3 | 0 | 0 | 0 |
| O=C(Cc1cc2c(oc1=O)C=CC1C=COC21)NCC(O)CO (stereo not shown) [IIF, N-(2,3-dihydroxypropyl)-2-{11-oxo-3,10-dioxatricyclo[7.4.0.0^{2,6}]trideca-1(9),4,7,12-tetraen-12-yl}acetamide] | 0 | 0 | 0 | 657 | 9 | 0 | 67 | 6547 | 0 | 1.1 | 1.6 | 5 | 2.0 | 0 | 0 | 1 |
